# From ChEMBL document CHEMBL4342442, “Usnic Acid Enaminone-Coupled 1,2,3-Triazoles as Antibacterial and Antitubercular Agents” (J Nat Prod, 2020)
# pIC50: −log10 of the molar value. Active and inactive are the calls of the source. The rule behind the calls is not given here.
# Experiments:
# [1] = tested on: Mycobacterium tuberculosis; experiment: Antitubercular activity against Mycobacterium tuberculosis H37Rv assessed as reduction in microbial growth after 7 days by alamar blue assay; format: functional; details: 168 h
# [2] = tested on: Bacillus subtilis; experiment: Antibacterial activity against Bacillus subtilis MTCC 441 assessed as reduction in microbial growth after 24 hrs by CLSI based microdilution method; format: functional; details: MTCC 441, 24 h
# [3] = tested on: Staphylococcus epidermidis; experiment: Antibacterial activity against Staphylococcus epidermidis assessed as reduction in microbial growth after 24 hrs by CLSI based microdilution method; format: functional
# [4] = tested on: Escherichia coli; experiment: Antibacterial activity against Escherichia coli MTCC 443 assessed as reduction in microbial growth after 24 hrs by CLSI based microdilution method; format: functional; details: MTCC 443, 24 h
# [5] = tested on: Pseudomonas aeruginosa; experiment: Antibacterial activity against Pseudomonas aeruginosa MTCC 741 assessed as reduction in microbial growth after 24 hrs by CLSI based microdilution method; format: functional; details: MTCC 741, 24 h
# [6] = tested on: Klebsiella pneumoniae; experiment: Antibacterial activity against Klebsiella pneumoniae MTCC 618 assessed as reduction in microbial growth after 24 hrs by CLSI based microdilution method; format: functional; details: MTCC 618, 24 h
# [7] = tested on: Staphylococcus aureus; experiment: Antibacterial activity against Staphylococcus aureus MTCC 96 assessed as reduction in microbial growth after 24 hrs by CLSI based microdilution method; format: functional; details: MTCC 96, 24 h
# [8] = tested on: Mycobacterium tuberculosis; experiment: Antitubercular activity against Mycobacterium tuberculosis H37Rv assessed as log reduction in bacterial population at 10 ug/ml under starvation condition after 7 days by MPN assay; format: functional
# [9] = tested on: CHO-K1; experiment: Cytotoxicity against CHOK1 cells assessed as reduction in cell viability after 24 hrs by MTT assay; format: cell-based; details: Cricetulus griseus, CHO-K1, 24 h
# [10] = tested on: Pseudomonas aeruginosa; experiment: Antibacterial activity against Pseudomonas aeruginosa MTCC 741 assessed as diameter of zone of inhibition at 200 ug/ml after 24 hrs by agar well diffusion method; format: functional; details: for zone of inhibition at 200 µg/mL: MTCC 741, 24 h, read-out: DIZ
# [11] = tested on: Staphylococcus aureus; experiment: Antibacterial activity against Staphylococcus aureus MTCC 96 assessed as diameter of zone of inhibition at 200 ug/ml after 24 hrs by agar well diffusion method; format: functional; details: for zone of inhibition at 200 µg/mL: MTCC 96, 24 h, read-out: DIZ
# [12] = tested on: Bacillus subtilis; experiment: Antibacterial activity against Bacillus subtilis MTCC 441 assessed as diameter of zone of inhibition at 200 ug/ml after 24 hrs by agar well diffusion method; format: functional; details: for zone of inhibition at 200 µg/mL: MTCC 441, 24 h, read-out: DIZ
# [13] = tested on: Staphylococcus epidermidis; experiment: Antibacterial activity against Staphylococcus epidermidis assessed as diameter of zone of inhibition at 200 ug/ml after 24 hrs by agar well diffusion method; format: functional; details: for zone of inhibition at 200 µg/mL: read-out: DIZ
# [14] = tested on: Klebsiella pneumoniae; experiment: Antibacterial activity against Klebsiella pneumoniae MTCC 618 assessed as diameter of zone of inhibition at 200 ug/ml after 24 hrs by agar well diffusion method; format: functional; details: for zone of inhibition at 200 µg/mL: MTCC 618, 24 h, read-out: DIZ
# [15] = tested on: Escherichia coli; experiment: Antibacterial activity against Escherichia coli MTCC 443 assessed as diameter of zone of inhibition at 200 ug/ml after 24 hrs by agar well diffusion method; format: functional; details: for zone of inhibition at 200 µg/mL: MTCC 443, 24 h, read-out: DIZ
smiles,measurement,setting,value
CC(=O)c1c(O)c(C)c(O)c2c1OC1=CC(=O)/C(=C(/C)NCc3cn(CC(=O)c4ccc(C(F)(F)F)cc4)nn3)C(=O)C12C (stereo not given),MIC,[1],41 µM
CC(=O)c1c(O)c(C)c(O)c2c1OC1=CC(=O)/C(=C(/C)NCc3cn(CC(=O)c4nccs4)nn3)C(=O)C12C (stereo not given),MIC,[1],45.5 µM
CC(=O)c1c(O)c(C)c(O)c2c1OC1=CC(=O)/C(=C(/C)NCc3cn(CC(=O)N4CCN(c5ccccc5Cl)CC4)nn3)C(=O)C12C (stereo not given),MIC,[2],302 µM
same,MIC,[3],> 350 µM
same,MIC,[4],> 350 µM
same,MIC,[5],> 350 µM
same,MIC,[6],> 350 µM
same,MIC,[1],37.8 µM
same,MIC,[7],> 350 µM
CC(=O)c1c(O)c(C)c(O)c2c1OC1=CC(=O)/C(=C(/C)NCc3cn(CC(=O)c4ccc5c(c4)Cc4ccccc4-5)nn3)C(=O)C12C (stereo not given),MIC,[1],9.9 µM
CC(=O)c1c(O)c(C)c(O)c2c1OC1=CC(=O)/C(=C(/C)NCc3cn(CC(=O)c4cc5ccccc5s4)nn3)C(=O)C12C (stereo not given),MIC,[1],41.8 µM
NNC(=O)c1ccncc1 [ISONIAZID],FC,[8],1.5
same,MIC,[1],2.9 µM
COc1cccc(C(=O)Cn2cc(CN/C(C)=C3\C(=O)C=C4Oc5c(C(C)=O)c(O)c(C)c(O)c5C4(C)C3=O)nn2)c1 (stereo not given),MIC,[1],43.7 µM
CO[C@@]12[C@H](COC(N)=O)C3=C(C(=O)C(C)=C(N)C3=O)N1C[C@@H]1N[C@@H]12 [MITOMYCIN],pIC50,[9],4.40
CC(=O)c1c(O)c(C)c(O)c2c1OC1=CC(=O)/C(=C(/C)NCc3cn(CC(=O)N4CCN(C/C=C/c5ccccc5)CC4)nn3)C(=O)C12C (stereo not given),MIC,[1],37.5 µM
CC(=O)c1c(O)c(C)c(O)c2c1OC1=CC(=O)/C(=C(/C)NCc3cn(CC(=O)N4CCN(c5ccc(C(F)(F)F)cc5)CC4)nn3)C(=O)C12C (stereo not given),MIC,[1],36 µM
CC(=O)c1c(O)c(C)c(O)c2c1OC1=CC(=O)/C(=C(/C)NCc3cn(CC(=O)N4CCSCC4)nn3)C(=O)C12C (stereo not given),MIC,[2],> 350 µM
same,diameter of the inhibition zone (DIZ),[10],inactive
same,diameter of the inhibition zone (DIZ),[11],inactive
same,MIC,[3],> 350 µM
same,diameter of the inhibition zone (DIZ),[12],inactive
same,MIC,[4],> 350 µM
same,MIC,[5],> 350 µM
same,diameter of the inhibition zone (DIZ),[13],inactive
same,MIC,[6],> 350 µM
same,MIC,[1],44 µM
same,diameter of the inhibition zone (DIZ),[14],inactive
same,MIC,[7],> 350 µM
same,diameter of the inhibition zone (DIZ),[15],inactive
CC1(C)S[C@@H]2[C@H](NC(=O)Cc3ccccc3)C(=O)N2[C@H]1C(=O)O [PENICILLIN G],MIC,[2],3.5 µM
same,zone of inhibition at 200 µg/mL,[10],23 mm
same,zone of inhibition at 200 µg/mL,[11],28 mm
same,MIC,[3],7 µM
same,zone of inhibition at 200 µg/mL,[12],28 mm
same,MIC,[4],27.8 µM
same,MIC,[5],27.8 µM
same,zone of inhibition at 200 µg/mL,[13],26 mm
same,MIC,[6],27.8 µM
same,zone of inhibition at 200 µg/mL,[14],25 mm
same,MIC,[7],3.5 µM
same,zone of inhibition at 200 µg/mL,[15],24 mm
CC(=O)c1c(O)c(C)c(O)c2c1OC1=CC(=O)/C(=C(/C)NCc3cn(CC(=O)c4cccc5ccccc45)nn3)C(=O)C12C (stereo not given),MIC,[1],42.2 µM
CC[C@@H](CO)NCCN[C@@H](CC)CO [ETHAMBUTOL],MIC,[1],7.6 µM
CO[C@H]1/C=C/O[C@@]2(C)Oc3c(C)c(O)c4c(O)c(c(/C=N/N5CCN(C)CC5)c(O)c4c3C2=O)NC(=O)/C(C)=C\C=C\[C@H](C)[C@H](O)[C@@H](C)[C@@H](O)[C@@H](C)[C@H](OC(C)=O)[C@@H]1C [RIFAMPIN],FC,[8],1.8
same,MIC,[1],0.6 µM
CC(=O)c1c(O)c(C)c(O)c2c1OC1=CC(=O)/C(=C(/C)NCc3cn(CC(=O)c4ccc(Cl)s4)nn3)C(=O)C12C (stereo not given),MIC,[1],42.9 µM
CC(=O)c1c(O)c(C)c(O)c2c1OC1=CC(=O)/C(=C(/C)NCc3cn(CC(=O)c4ccc(Cl)c(Cl)c4)nn3)C(=O)C12C (stereo not given),MIC,[1],40.9 µM
CC(=O)c1c(O)c(C)c(O)c2c1OC1=CC(=O)/C(=C(/C)NCc3cn(CC(=O)c4c5ccccc5cc5ccccc45)nn3)C(=O)C12C (stereo not given),MIC,[1],9.7 µM
CC(=O)c1c(O)c(C)c(O)c2c1OC1=CC(=O)/C(=C(/C)NCc3cn(CC(=O)N4CCN(C(=O)OC(C)(C)C)CC4)nn3)C(=O)C12C (stereo not given),MIC,[1],38.4 µM
CN[C@@H]1[C@H](O[C@H]2[C@H](O[C@H]3[C@H](O)[C@@H](O)[C@H](N=C(N)N)[C@@H](O)[C@@H]3N=C(N)N)O[C@@H](C)[C@]2(O)C=O)O[C@@H](CO)[C@H](O)[C@H]1O [STREPTOMYCIN],MIC,[2],8.1 µM
same,zone of inhibition at 200 µg/mL,[10],28 mm
same,zone of inhibition at 200 µg/mL,[11],23 mm
same,MIC,[3],4 µM
same,zone of inhibition at 200 µg/mL,[12],24 mm
same,MIC,[4],8.1 µM
same,MIC,[5],8.1 µM
same,zone of inhibition at 200 µg/mL,[13],25 mm
same,MIC,[6],8.1 µM
same,zone of inhibition at 200 µg/mL,[14],26 mm
same,MIC,[7],4 µM
same,zone of inhibition at 200 µg/mL,[15],23 mm
CC(=O)C1=C(O)C=C2Oc3c(C(C)=O)c(O)c(C)c(O)c3C2(C)C1=O (stereo not given),MIC,[1],35.6 µM
CC(=O)c1c(O)c(C)c(O)c2c1OC1=CC(=O)/C(=C(/C)NCc3cn(CC(=O)c4ccc(OC(F)(F)F)cc4)nn3)C(=O)C12C (stereo not given),MIC,[1],39.9 µM
COc1c(N2C[C@@H]3CCCN[C@@H]3C2)c(F)cc2c(=O)c(C(=O)O)cn(C3CC3)c12 [MOXIFLOXACIN],FC,[8],2
COc1ccc2cc(C(=O)Cn3cc(CN/C(C)=C4\C(=O)C=C5Oc6c(C(C)=O)c(O)c(C)c(O)c6C5(C)C4=O)nn3)ccc2c1 (stereo not given),MIC,[1],40.2 µM
CC(=O)c1c(O)c(C)c(O)c2c1OC1=CC(=O)/C(=C(/C)NCc3cn(CC(=O)N4CCN(c5ccccn5)CC4)nn3)C(=O)C12C (stereo not given),MIC,[1],39.8 µM
CC(=O)c1c(O)c(C)c(O)c2c1OC1=CC(=O)/C(=C(/C)NCc3cn(CC(=O)c4ccc(C#N)cc4)nn3)C(=O)C12C (stereo not given),MIC,[1],44.1 µM
CC(=O)c1c(O)c(C)c(O)c2c1OC1=CC(=O)/C(=C(/C)NCc3cn(CC(=O)c4ccc(Br)s4)nn3)C(=O)C12C (stereo not given),MIC,[1],39.8 µM
CC(=O)c1c(O)c(C)c(O)c2c1OC1=CC(=O)/C(=C(/C)NCc3cn(CC(=O)c4ccc(Cl)cc4)nn3)C(=O)C12C (stereo not given),MIC,[1],10.8 µM
CC(=O)c1c(O)c(C)c(O)c2c1OC1=CC(=O)/C(=C(/C)NCc3cn(CC(=O)c4ccc(-c5ccccc5)cc4)nn3)C(=O)C12C (stereo not given),MIC,[1],48.2 µM
CC(=O)c1c(O)c(C)c(O)c2c1OC1=CC(=O)/C(=C(/C)NCc3cn(CC(=O)N4CCN(c5ccccc5)CC4)nn3)C(=O)C12C (stereo not given),MIC,[1],39.9 µM
CC(=O)c1c(O)c(C)c(O)c2c1OC1=CC(=O)/C(=C(/C)NCc3cn(CC(=O)N4CCN(c5ccccc5F)CC4)nn3)C(=O)C12C (stereo not given),MIC,[1],9.7 µM
CC(=O)c1c(O)c(C)c(O)c2c1OC1=CC(=O)/C(=C(/C)NCc3cn(CC(=O)c4ccc([N+](=O)[O-])cc4)nn3)C(=O)C12C (stereo not given),MIC,[1],42.6 µM
CC(=O)c1c(O)c(C)c(O)c2c1OC1=CC(=O)/C(=C(/C)NCc3cn(CC(=O)c4ccc(F)cc4)nn3)C(=O)C12C (stereo not given),MIC,[2],347 µM
same,MIC,[3],> 350 µM
same,MIC,[4],> 350 µM
same,MIC,[5],> 350 µM
same,MIC,[6],> 350 µM
same,MIC,[1],11.2 µM
same,MIC,[7],> 350 µM
CC(=O)c1c(O)c(C)c(O)c2c1OC1=CC(=O)/C(=C(/C)NCc3cn(CC(=O)c4ccccc4)nn3)C(=O)C12C (stereo not given),MIC,[1],46.1 µM
CC(=O)c1c(O)c(C)c(O)c2c1OC1=CC(=O)/C(=C(/C)NCc3cn(CC(=O)c4cccs4)nn3)C(=O)C12C (stereo not given),MIC,[1],45.6 µM
COc1ccc(C(=O)Cn2cc(CN/C(C)=C3\C(=O)C=C4Oc5c(C(C)=O)c(O)c(C)c(O)c5C4(C)C3=O)nn2)cc1 (stereo not given),MIC,[1],43.7 µM
O=C(O)c1cn(C2CC2)c2cc(N3CCNCC3)c(F)cc2c1=O [CIPROFLOXACIN],FC,[8],1.8
